Data from patent US20150031102A1, “METHODS AND COMPOSITIONS FOR ENHANCED PRODUCTION OF BUTANOL BY CLOSTRIDIA” (Butrolix LLC, priority 2012, published 2015).

Test system: C. acetobutylicum ATCC 824
Assay: Germination and sequential batch cultures of C. acetobutylicum ATCC 824 grown at 37° C. (growth OD600, final pH, ceric ion reactive compounds)
Type: cell-based, Clostridium acetobutylicum
Experimental: Clostridium acetobutylicum ATCC 824 and C. beijerinckii NCIMB 8052 are available from several commercial microbial culture collections including the American Type Culture Collection (ATCC), Manassas, Va., USA. The strain grown at 30 C or 37 C in YE broth, which contained, per liter: 5.0 g yeast extract, 2.5 g casamino acids, 1.0 g L-asparagine, 0.5 g cysteine·HCl, 56 mg K2HPO4, 56 mg KH2PO4, 82 mg anhydrous MgSO4, 8 mg FeSO4.H2O, 6 mg MnSO4.H2O and 10 g glucose. Alternatively, strains were grown in YEPG broth, which was identical to YE expect that K2HPO4 and KH2PO4 were increased to 145 mg/L each and glucose was increased to 60 g/L. The pH of the media was adjusted to 7.2 using 45% KOH prior to sterilization by autoclaving. Media were solidified by addition of 1.5% Bacteriological Agar, Acumedia Manufacturers, Inc., Lansing, Mich. All cultures were grown in anaerobic conditions using the AnaeroPack System, Mitsubishi Gas Chemical Co., Inc., Japan, and GasPak EZ Gas Generating Sachets, Becton, Dickinson and Co., Sparks, Md. Spore stocks were kept at room temperature on agar-solidified media and were activated by suspending spores in 0.5 mL to 1.0 mL of medium followed by heating for 10 min at 80 C before inoculation into growth medium.
Growth of bacterial cultures was measured spectrophotometrically using optical density at 600 nm and pH of cell-free culture supernatants was measured using a hand-held Shindengen ISFET pH Meter KS501, Shendengen Electric Manufacturing Co., Ltd., Bannockburn, Ill.
Total alcohols in cell-free culture supernatants were measured using a modification of a colorimetric method based on ceric ammonium nitrate (Reid and Truelove, 1952). The ceric ion reagent was prepared by adding 1.3 mL of concentrated nitric acid to 40 mL of distilled water, then 10.96 g of ceric ammonium nitrate was dissolved in the dilute nitric acid solution and the solution was brought to a final volume of 50 mL. For the assay, […] of butanol standard or culture supernatant was mixed with […] distilled water in a disposable plastic cuvette followed by addition of […] of the ceric ion reagent. The sample was mixed by inverting the cuvette six times then exactly two minutes later the optical density at 500 nm wavelength was measured. The concentration of total alcohols was determined by comparison with a standard curve prepared by using butanol diluted in distilled water.
Spores of C. acetobutylicum ATCC 824 were germinated and grown overnight at 37 C under anaerobic conditions in YEPG medium that either contained 50 nM of peptide SEQ ID NO: 143 or no added peptide. After about 24 h of growth, […] of the untreated culture was transferred (transfer 1) to each of two flasks that contained 10 mL of YEPG with either no treatment or with 50 nM peptide SEQ ID NO: 143. At the same time, 10 μL of the culture that was germinated in the presence of peptide SEQ ID NO: 143 was also transferred to 10 mL of YEPG that contained 50 nM of peptide SEQ ID NO: 143. Thereafter, […] of each culture was transferred, at the same time, every 24-48 h to 10 mL of fresh YEPG that contained the same peptide treatment or no treatment. Each culture was stopped after 72 hours if incubation and optical density, pH and ceric ion reactive chemicals were measured. Sequential batch culturing was continued through 3 transfers at which point the untreated culture and the culture that was germinated and transferred in 50 nM of peptide were still growing, while the culture that was treated with peptide after germination had stopped growing (Table 15 and FIG. 7).

[1] = 50 nM added after germination, transfer 1, 72 h culture
[2] = 50 nM added after germination, transfer 2, 72 h culture
[3] = 50 nM added after germination, transfer 3, 72 h culture
[4] = 50-50 (germinated and transferred in 50 nM), transfer 1, 72 h culture
[5] = 50-50 (germinated and transferred in 50 nM), transfer 2, 72 h culture
[6] = 50-50 (germinated and transferred in 50 nM), transfer 3, 72 h culture
[7] = 50-50 (spores germinated in 50 nM peptide), transfer 0 (germinated culture), 72 h culture

## SYPGWSW [peptide SEQ ID NO: 143]
[1]
  Final pH: 4.4
  Optical density at 600 nm: 1.891
  Optical density of ceric ion reactive compounds measured at 500 nm: 0.116
[2]
  Final pH: 6.0
  Optical density at 600 nm: 0.011
  Optical density of ceric ion reactive compounds measured at 500 nm: 0.000
[3]
  Final pH: 5.5
  Optical density at 600 nm: 0.100
  Optical density of ceric ion reactive compounds measured at 500 nm: 0.001
50 nM added after germination, untreated survived through 3 transfers
  Growth in sequential transfers: did not grow beyond the first transfer
50 nM peptide treatment during germination and growth
  Culture degeneration in terms of production of total alcohols: prevented culture degeneration
[4]
  Final pH: 4.5
  Optical density at 600 nm: 1.715
  Optical density of ceric ion reactive compounds measured at 500 nm: 0.152
[5]
  Final pH: 3.8
  Optical density at 600 nm: 1.858
  Optical density of ceric ion reactive compounds measured at 500 nm: −0.063
[6]
  Final pH: 4.6
  Optical density at 600 nm: 1.485
  Optical density of ceric ion reactive compounds measured at 500 nm: 0.138
[7]
  Final pH: 4.1
  Optical density at 600 nm: 2.121
  Optical density of ceric ion reactive compounds measured at 500 nm: 0.028
